# Measurements published in US20150328320A1, “Novel Pharmaceutical Composition” (GLAXOSMITHKLINE LLC, priority 2012, published 2015).
# Entries after “also recorded” stand apart in the source; their conditions may differ.
# How the values were obtained:
# [1] = Aqueous solubility of trametinib in the presence of various solubilizers (FIG. 1); type: physicochemical
# Text: FIG. 1 depicts the aqueous solubility of trametinib in the presence of various solubilizers.
# As used herein, “solubilizer” is a substance (liquid or solid) that helps to keep the drug uniformly dispersed and dissolved in solution. A solubilizer prevents recrystallization and precipitation of the dissolved drug out of solution. For use in the present invention, suitable solubilizers include, but are not limited to, hypromellose, polyvinylpyrrolidone, sulfobutylether B-cyclodextrin (Captisol) and hydroxypropyl B-cyclodextrin (Cavitron). A combination of solubilizers can also be used. […] Suitably, the amount of solubilizer in a formulation according to the invention will be selected from: about 30 to 95%; suitably about 50 to 80%; suitably about 65 to 75%; by weight of the final product. Suitably, the amount of solubilizer in a formulation according to the invention will be selected from: about 30%; suitably about 35%, suitably about 40%, suitably about 45%, suitably about 50%, suitably about 55%, suitably about 60%, suitably about 65%, suitably about 70%, suitably about 75%, suitably about 80%, suitably about 85%, suitably about 90%, and suitably about 95%, by weight of the final product.
# [2] = Effect of HPMC and solubilizers on aqueous solubility of trametinib (FIG. 3); type: physicochemical; details: HPMC present in a cavitron solution, initial 1 mg/mL
# [3] = Solubility profile at 0.05 mg/mL using solubilizers as a function of time (FIG. 4); type: physicochemical; details: 30 days, 25° C. and 60% relative humidity
# [4] = Physical stability, photo-stability and relative solubility of the drug substance; type: physicochemical
# Text: Several additional challenges exist concerning the use of Compound A in a pediatric formulation.
# The potential for unacceptable levels of photo-degradation is of particular importance since photo-catalyzed degradation products may be potentially toxic.
# [5] = Exposure and absorption upon in vivo administration
# Text: Suitably the powder for oral solution (POS) of the current invention contain micronized Compound A where at least 90% of the particles of Compound A are from 1 to 20 microns, suitably from 2.2 to 10.5 microns, such formulations provide an acceptable exposure/absorption profile. Suitably the powder for oral solution (POS) of the current invention contains micronized Compound A where at least 50% of the particles of Compound A are from 1 to 6 microns, suitably from 1.5 to 4.3 microns, such formulations provide an acceptable exposure/absorption profile. Suitably the powder for oral solution (POS) of the current invention contains micronized Compound A where at least 10% of the particles of Compound A are from 0.01 to 3.0 microns, suitably from 0.77 to 1.3 microns, such formulations provide an acceptable exposure/absorption profile. Such formulations help provide safe and effective treatment.
# [6] = system: BRAF V600-mutation positive metastatic melanoma; details: subjects with BRAF V600-mutation positive metastatic melanoma, Phase III study; cited from earlier work
# [7] = Trametinib concentration profile as a function of time and Cavitron concentration (FIG. 2)
SMILES,aqueous solubility ([1]; hypromellose and hydroxypropyl B-cyclodextrin combined),aqueous solubility ([1]; in hydroxypropyl B-cyclodextrin (Cavitron) formulation),aqueous solubility ([1]; in polyethylene glycol (PEG) solution),"aqueous solubility ([1]; in polyethylene glycol (PEG) solution, listed as Trametinib)",aqueous solubility ([1]; in propylene glycol solution),"aqueous solubility ([1]; in propylene glycol solution, listed as Trametinib)",stability of solution (precipitation) [2],solubility and solution stability over time ([3]; captisol solution),solubility and solution stability over time ([3]; cavitron solution),"physical stability of the solvate (desolvation) ([4]; high humidity or aqueous environment, handling and formulation)",photo-stability ([4]; light),exposure and absorption [5],anti-tumor activity [6],"trametinib concentration remaining in solution ([7]; Cavitron solutions, initial concentration 1 mg/mL, after five days)",solubility relative to Compound A [4],"precipitation out of solution ([7]; starting concentration ~0.05 mg/mL, conditions of FIG. 2)"
"CC(=O)Nc1cccc(-n2c(=O)n(C3CC3)c(=O)c3c(Nc4ccc(I)cc4F)n(C)c(=O)c(C)c32)c1 [Compound A, N-{3-[3-cyclopropyl-5-(2-fluoro-4-iodo-phenylamino)-6,8-dimethyl-2,4,7-trioxo-3,4,6,7-tetrahydro-2H-pyrido[4,3-d]pyrimidin-1-yl]phenyl}acetamide dimethyl sulfoxide solvate]",good aqueous solubility,greatest solubility,very low aqueous solubility,generally not soluble,very low aqueous solubility,generally not soluble,increases the stability of trametinib solution,able to maintain the solubility and stabilize the solution for 30 days,able to maintain the solubility and stabilize the solution for 30 days,favors conversion from the dimethyl sulfoxide solvate to the de-solvated form; also recorded: can undergo desolvation,very sensitive to light; also recorded: can suffer from photo-instability,poor exposure and absorption,has shown anti-tumor activity,7-10 % of the initial concentration,–,–
"CC(=O)Nc1cccc(-n2c(=O)n(C3CC3)c(=O)c3c(Nc4ccc(I)cc4F)n(C)c(=O)c(C)c32)c1 [Compound B, N-{3-[3-cyclopropyl-5-(2-fluoro-4-iodo-phenylamino)-6,8-dimethyl-2,4,7-trioxo-3,4,6,7-tetrahydro-2H-pyrido[4,3-d]pyrimidin-1-yl]phenyl}acetamide]",–,–,–,–,–,–,–,–,–,–,–,–,–,–,much less soluble than Compound A,no significant amount of the drug will precipitate out of solution
